Reference: patent US6525053B1, “Prostaglandin endoperoxide H synthase biosynthesis inhibitors” (Abbott Laboratories, priority 1997, dated 2003)

system: not given; assay: not given; details: not given

First: CS(=O)(=O)c1ccc(-c2cc(=O)n(CC(=O)c3ccccc3)nc2-c2ccc(F)cc2)cc1 [Example 16, 2-Phenacyl-5-(4-methylsulfonylphenyl)-6-(4-fluorophenyl)-3(2H)-pyridazinone]
Second: CS(=O)(=O)c1ccc(-c2cc(=O)n(Cc3ccccc3)nc2-c2ccc(F)cc2)cc1 [Example 7, 2-Benzyl-5-(4-methylsulfonylphenyl)-6-(4-fluorophenyl)-3(2H)-pyridazinone]
The melting point of the first is higher: 178 to 180 °C for the first, 172 to 174 °C for the second.

First: CCCCCn1nc(-c2ccc(F)cc2)c(-c2ccc(S(C)(=O)=O)cc2)cc1=O [Example 14, 2-(n-Pentyl)-5-(4-methylsulfonylphenyl)-6-(4-fluorophenyl)-3(2H)-pyridazinone]
Second: CCCCn1nc(-c2ccc(F)cc2)c(-c2ccc(S(C)(=O)=O)cc2)cc1=O [Example 11, 2-(n-Butyl)-5-(4-methylsulfonylphenyl)-6-(4-fluorophenyl)-3(2H)-pyridazinone]
The melting point of the first is lower: 65 to 67 °C for the first, 111 to 113 °C for the second.

First: CCn1nc(-c2ccc(F)cc2)c(-c2ccc(S(C)(=O)=O)cc2)cc1=O [Example 9, 2-Ethyl-5-(4-methylsulfonylphenyl)-6-(4-fluorophenyl)-3(2H)-pyridazinone]
Second: CCCn1nc(-c2ccc(F)cc2)c(-c2ccc(S(C)(=O)=O)cc2)cc1=O [Example 13, 2-(n-Propyl)-5-(4-methylsulfonylphenyl)-6-(4-fluorophenyl)-3(2H)-pyridazinone]
The melting point of the first is higher: 177 to 179 °C for the first, 155 to 157 °C for the second.

First: CS(=O)(=O)c1ccc(-c2cc(=O)n(C3CCCCC3)nc2-c2ccc(F)cc2)cc1 [Example 18, 2-Cyclohexyl-5-(4-methylsulfonylphenyl)-6-(4-fluorophenyl)-3(2H)-pyridazinone]
Second: CS(=O)(=O)c1ccc(-c2cc(=O)n(C3CCCC3)nc2-c2ccc(F)cc2)cc1 [Example 25, 2-Cyclopentyl-5-(4-methylsulfonylphenyl)-6-(4-fluorophenyl)-3(2H)-pyridazinone]
The melting point of the first is lower: 86 to 90 °C for the first, 191 to 192 °C for the second.

Compared with `CC(c1ccc(F)cc1)n1nc(-c2ccc(F)cc2)c(-c2ccc(S(C)(=O)=O)cc2)cc1=O` (stereo not drawn) [Example 12, 2-(4-Fluoro-α-methylbenzyl)-5-(4-methylsulfonylphenyl)-6-(4-fluorophenyl)-3(2H)-pyridazinone], `CS(=O)(=O)c1ccc(-c2cc(=O)n(Cc3ccc(F)cc3)nc2-c2ccc(F)cc2)cc1` [Example 10, 2-(4-Fluorobenzyl)-5-(4-methylsulfonylphenyl)-6-(4-fluorophenyl)-3(2H)-pyridazinone] is lower in melting point: 185 to 186 °C for the first, 150 to 151 °C for the second.

First: CS(=O)(=O)c1ccc(-c2cc(=O)n(CC3CCCCC3)nc2-c2ccc(F)cc2)cc1 [Example 15, 2-Cyclohexylmethyl-5-(4-methylsulfonylphenyl)-6-(4-fluorophenyl)-3(2H)-pyridazin-one]
Second: CS(=O)(=O)c1ccc(-c2cc(=O)n(CC3CCCC3)nc2-c2ccc(F)cc2)cc1 [Example 24, 2-Cyclopentylmethyl-5-(4-methylsulfonylphenyl)-6-(4-fluorophenyl)-3(2H)-pyridazinone]
The melting point of the first is higher: 175 to 176 °C for the first, 76 to 77 °C for the second.

First: CC#CCn1nc(-c2ccc(F)cc2)c(-c2ccc(S(C)(=O)=O)cc2)cc1=O [Example 19, 2-(2-Butyn-1-yl)-5-(4-methylsulfonylphenyl)-6-(4-fluorophenyl)-3(2H)-pyridazinone]
Second: C#CCn1nc(-c2ccc(F)cc2)c(-c2ccc(S(C)(=O)=O)cc2)cc1=O [Example 17, 2-Propargyl-5-(4-methylsulfonylphenyl)-6-(4-fluorophenyl)-3(2H)-pyridazinone]
The melting point of the first is lower: 81 to 82 °C for the first, 168 to 169 °C for the second.

First: CS(=O)(=O)c1ccc(-c2cc(=O)[nH]nc2-c2ccc(F)cc2)cc1 [Example 6, 5-(4-Methylsulfonylphenyl)-6-(4-fluorophenyl)-3(2H)-pyridazinone]
Second: Cn1nc(-c2ccc(F)cc2)c(-c2ccc(S(C)(=O)=O)cc2)cc1=O [Example 8, 2-Methyl-5-(4-methylsulfonylphenyl)-6-(4-fluorophenyl)-3(2H)-pyridazinone]
The melting point of the first is higher: 260 to 262 °C for the first, 181 to 182 °C for the second.

Compared with `CS(=O)(=O)c1ccc(-c2cc(=O)n(CC3CCC3)nc2-c2ccc(F)cc2)cc1` [Example 20, 2-(Cyclobutylmethyl)-5-(4-methylsulfonylphenyl)-6-(4-fluorophenyl)-3(2H)-pyridazinone], `CS(=O)(=O)c1ccc(-c2cc(=O)n(CC3CC3)nc2-c2ccc(F)cc2)cc1` [Example 23, 2-(Cyclopropylmethyl)-5-(4-methylsulfonylphenyl)-6-(4-fluorophenyl)-3(2H)-pyridazinone] is higher in melting point: 74 to 76 °C for the first, 130 to 132 °C for the second.

For `CC(C)=CCn1nc(-c2ccc(F)cc2)c(-c2ccc(S(C)(=O)=O)cc2)cc1=O` [Example 21], the melting point was 71 to 72 °C.

target: T1, recombinant human Cox-2 (Homo sapiens, UniProt P35354); assay: Recombinant human PGHS-2 (Cox-2) enzyme assay, PGE2 by EIA; assay type: biochemical; details: at 1000 nM
T1 construct: made in house; host or cells: baculovirus/Sf9 insect cells (microsomes)
T1 sequence (P35354 18-604): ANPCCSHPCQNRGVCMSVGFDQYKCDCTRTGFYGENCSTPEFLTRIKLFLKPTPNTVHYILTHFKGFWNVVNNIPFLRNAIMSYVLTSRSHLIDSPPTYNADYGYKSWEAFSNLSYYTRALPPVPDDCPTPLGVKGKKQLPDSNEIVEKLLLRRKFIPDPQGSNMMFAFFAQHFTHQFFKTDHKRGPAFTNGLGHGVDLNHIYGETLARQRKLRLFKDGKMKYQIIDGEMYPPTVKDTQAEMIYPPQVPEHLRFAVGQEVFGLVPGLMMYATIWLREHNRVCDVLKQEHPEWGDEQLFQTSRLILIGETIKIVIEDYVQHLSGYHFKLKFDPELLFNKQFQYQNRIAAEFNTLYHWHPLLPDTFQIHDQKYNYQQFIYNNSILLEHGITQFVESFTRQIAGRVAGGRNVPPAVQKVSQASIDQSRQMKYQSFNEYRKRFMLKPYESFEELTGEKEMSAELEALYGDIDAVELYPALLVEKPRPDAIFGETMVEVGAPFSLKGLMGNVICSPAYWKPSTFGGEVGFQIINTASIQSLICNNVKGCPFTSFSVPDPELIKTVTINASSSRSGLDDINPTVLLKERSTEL
Description: To compare the mean responses of the treatment groups, analysis of variance was applied. Percent inhibition values were determined by comparing the individual treatment mean values to the mean of the control group. Linear regression was used to estimate IC50's/ED50's in appropriate assays.
EIA reagents for prostaglandin determination were purchased from Perseptive Diagnostics, (Cambridge, Mass.). PGE2 levels in lavage fluids were determined after the samples were dried under nitrogen and reconstituted with assay buffer. PGE2 levels in enzyme assays or cell culture media were measured against standards prepared in the same milieu. The immunoassays were conducted as recommended by the manufacturer. The EIA was conducted in 96 well microtiter plates (Nunc Roskilde, Denmark) and optical density was measured using a microplate reader (Vmax, Molecular Devices Corp., Menlo Park, Calif.).
Inhibition of prostaglandin biosynthesis in vitro was evaluated using recombinant human Cox-1 (r-hu Cox1) and Cox-2 (r-hu Cox2) enzyme assays. […] PGE2 production in the presence and absence of the drug was determined by EIA analysis. The EIA was conducted in 96 well microtiter plates (Nunc Roskilde, Denmark) and optical density was measured using a microplate reader (Vmax, Molecular Devices Corp., Menlo Park, Calif.). […] PGE2 levels were measured against standards prepared in the same milieu. […]

In the case of `CS(=O)(=O)c1ccc(-c2cc(=O)n(CC(F)(F)F)nc2-c2ccc(F)cc2)cc1` [Example 22, 2-(2,2,2-Trifluoroethyl)-5-(4-methylsulfonylphenyl)-6-(4-fluorphenyl)-3(2H)-pyridazinone], the “RHUCX2 Cox-2 percent inhibition” value was 46 @ 1000%.
